The results in this text go back to PMC10887108, “Novel Brain-Penetrant, Small-Molecule Tubulin Destabilizers for the Treatment of Glioblastoma” (Biomedicines, 2024).

In series [1] the test system is colchicine binding pocket of β-tubulin in MCF-7 cells. Put plainly: EBI competition colchicine-binding site cellular assay. The class given is cell-based, human. The settings on record: MCF-7, compound 50 µM. The method, then:
(C) EBI competition assay in MCF-7 breast cancer cells. […] Total proteins were lysed and subjected to Western blot analysis for β-tubulin. […] GAPDH was employed as the loading control. (D) Quantification of the Western blot in (C). […] Data are plotted as mean ± SD from at least three independent experiments. Analysis between groups in (B) was performed using a one-way ANOVA with Tukey’s multiple comparison test.

Series [2] is described as follows: Kinetic solubility in phosphate buffer. The class given is physicochemical. As to conditions: 100 mM phosphate buffer, 1% DMSO. The method, then:
Kinetic solubility was determined in phosphate buffer. The compound (4 µL, 10 mM DMSO) was added to the buffer (396 μL 100 mM phosphate buffer, final 1% DMSO) and shaken at 1000 rpm at RT for 1 h. Samples were filtered (Millipore MSSLBPC10; Burlington, MA, USA), the primary filtrate was discarded, and the subsequent filtrate was collected. The supernatant solution was diluted 10× with DMSO. Test samples (10 µL) and working standard curve samples were added to the stop solution (100 μL, containing internal standard) and water/0.1% FA (100 μL). Samples were analyzed by LC-MS/MS. Albendazole, propranolol, and 4,5-diphenylimidazole were used as positive controls.

For a further series, the system named is U87 glioblastoma cells. Briefly: Cell cycle analysis (propidium iodide flow cytometry). The class given is cell-based, human. As to conditions: U87, 5 µM, 48 h. As for the experimental part: […] Cells were washed in ice-cold PBS, resuspended in 1 mL of ice-cold 70% ethanol, and fixed overnight at −20 °C. Cells were centrifuged and resuspended in PBS containing RNAse A at a final concentration of 0.5 mg/mL (MilliporeSigma 10109142001; Burlington, MA, USA) and propidium iodide at a final concentration of 0.04 mg/mL (Sigma-Aldrich P4170, St. Louis, MO, USA) for 1 h at 37 °C. Nuclear staining was analyzed using a BD FACSCanto II flow cytometer (BD Biosciences; Franklin Lakes, NJ, USA) to determine cell cycle distribution. Cell cycle analysis was performed using the BD FACSDiva software v8.0.

Series [3] addresses T1, Porcine tubulin (colchicine binding site) (Sus scrofa, UniProt P02554).
T1 construct: purchased Cytoskeleton, Inc. T240; host or cells: brain tissue (purified)
Briefly: Colchicine competitive binding assay (fluorescence). As to conditions: compound 50 µM, colchicine 10 μM, tubulin 20 μM.

In series [4] the test system is GBM12 patient-derived xenograft. Put plainly: Subcutaneous GBM12 PDX efficacy model. In kind it is in vivo, athymic nude female mice. The settings on record: 100 mg/kg oral BID, 5 days on/2 days off, four cycles. As for the experimental part:
Animal protocols were approved by the Animal Care and Use Committee (ACUC) of the institutes and CRO labs. All studies were performed in compliance with the guidelines. GBM12 cells (5 × 10^6) were injected subcutaneously into athymic nude female mice aged 4–6 weeks. Subcutaneous (SC) tumor size was measured using an external caliper. The greatest longitudinal diameter (length) and the greatest transverse diameter (width) were determined while mice were scruffed and conscious. Tumor volume was calculated by the modified ellipsoidal formula: V = ½ (Length × Width^2). RGN3067 solution was prepared for each mouse. RGN3067 (9.91 mg) was dissolved in DMSO (17 µL) by vortexing for 30–60 s. Approximately 69 μL of PEG400: PVP (95:5, Sigma-Aldrich; St. Louis, MO, USA) solution was added and vortexed.
After tumors reached 100–150 mm^3, mice were dosed with RGN3067 solution (43 µL, 100 mg/kg) or vehicle control twice daily by oral gavage (total dose was 200 mg/kg). Mice were dosed using cycles of 5 days on/2 days off, for a total of four cycles. Mice were euthanized once the tumor reached 2000 mm^3.

The test system of series [5] is HMC3 microglial cells (non-tumorigenic). Briefly: alamarBlue cell viability assay, HMC3. In kind it is cell-based, human. As to conditions: HMC3, up to 10 μM. As for the experimental part:
Cells (100 µL/well) were seeded in 96-well tissue culture plates (Greiner Bio-One 650090; Kremsmünster, Austria). The plating density (cells/well) for each cell line was as follows: LN-18 (3000), U87 (4000), and HMC3 (5000). After overnight incubation, compounds were added to the cells (50 µL at 3× concentration, final 0.1% DMSO), and plates were incubated for 72 h. Cell viability was assessed by the addition of 25 µL of alamarBlue for a final concentration of 100 µM final concentration (Resazurin redox reagent, Sigma-Aldrich R7017; St. Louis, MO, USA). After a 4 h incubation, fluorescence was read on a CLARIOstar Plus plate reader (BMG Labtech, Ortenberg, Germany) at EX 570/EM 590 nm.
Background: Resazurin is reduced to fluorescent resorufin, in cell work by metabolically active cells.

In series [6] the test system is U87 cells (microtubule network). Put plainly: Immunofluorescent staining of cellular β-tubulin. The class given is cell-based, human. The settings on record: U87, compounds at their IC50 concentrations, 24 h. As for the experimental part:
U87 cells (4000/well) were plated in black 96-well plates (Perkin Elmer 6055302; Waltham, MA, USA) and grown overnight. Cells were treated with compounds for 24 h, fixed with 4% paraformaldehyde for 20 min, and permeabilized with FoxP3 permeabilization buffer (eBioscience/Thermo Fisher Scientific 00-5523-00; Waltham, MA, USA) for 10 min at RT. Cells were incubated with an anti-TUBB3 (Tuj1) antibody (1:1000; […] Technologies 60052; Vancouver, BC, Canada) labeled with Hoechst 33342 dye (1:2000; Thermo Fisher Scientific H3570; Waltham, MA, USA). Images (40×) were taken with an automated high-content imaging microscope (Operetta, Perkin Elmer; Waltham, MA, USA).

Series [7] concerns GBM12 patient-derived GB cells. Briefly: CellTiter-Glo viability assay, patient-derived GBM12 cells. The class given is cell-based. As to conditions: Homo sapiens, GBM12, 144 h, read-out: IC50 cell viability. The method, then: Short-term cultures of patient-derived cells GBM12, GBM15, GBM39 and GBM43 (used with permission Mayo Foundation) were seeded (1000 cells/well) in solid white Corning 384-well plates (Corning, NY, USA) and cultured overnight. Cells were treated with DMSO or RGN3067 in a 13-point dose response with a 1:3 serial dilution from an initial concentration of 100 μM. After 144 h, cell viability was measured using CellTiter-Glo (Promega, Madison, WI, USA). Data were normalized to DMSO control, and absolute IC50 values were calculated using GraphPad Prism 10 (San Diego, CA, USA).
A general note: Cellular ATP, detected with luciferase, serves as a proxy for viable cell number.

Values after ≈ are worked out from the molar mass of the structure shown.

For orientation: solubility (kinetic) means solubility judged after dilution from a stock solution rather than from solid. For orientation: IC50 means the concentration needed to halve the response being measured.

With `CO[C@H]1C[C@@H](C(=O)NC(=O)Nc2ccc(Oc3ccc(Cl)cn3)c(C)c2)C1` [RGN3067], in series [1], the “formation of the EBI–β-tubulin adduct” value was “reduces the formation of the EBI–β-tubulin adduct”. This molecule returned a solubility (kinetic) at 1 h in series [2] of 5.7 µM (≈ 2.22 µg/mL). For the same molecule, the “cells arrested at G2/M” value in the series with U87 glioblastoma cells is 73%. The “reduction of colchicine–tubulin fluorescence relative to control” value in series [3] amounted to 24%. Further, the “behavior, appearance and weight loss” value in series [4] is “No changes in behavior or appearance (hair and skin) or statistically significant weight loss was observed”. Besides, the “inhibition of tumor growth (tumor volume)” value in series [4] (from day 14 to end of study) is on record as “statistically significant inhibition of tumor growth”. Also, in series [5], the “inhibition of cell viability” value is reported as “does not significantly inhibit”. Besides, the “effect on tubulin organization / MT network morphology” value in series [6] is listed as “varying levels of disruption of tubulin organization”. Also, the IC50 in series [7] stood at 148 nM.
